Measurements from patent US10308620B2, “Muscarinic M1 receptor positive allosteric modulators” (SUVEN LIFE SCIENCES LIMITED, priority 2015, dated 2019).

Columns and labels:
[1] = biological target: recombinant human Muscarinic M1 receptor (Homo sapiens (Human), UniProt P11229); assay: Allosteric potency EC50, CHO cells with pCRE-Luc reporter, in presence of EC20 of acetylcholine; format: cell-based; conditions: 4 hours
Method: Determination of Allosteric Potency EC50 Values for Muscarinic M1 Receptor:
A stable CHO cell line expressing recombinant human Muscarinic M1 receptor and pCRE-Luc reporter system was used for cell-based assay. The assay offers a non-radioactive based approach to determine binding of a compound to GPCRs. In this specific assay, the level of intracellular cyclic AMP which is modulated by activation or inhibition of the receptor is measured. The recombinant cells harbor luciferase reporter gene under the control of cAMP response element.
The above cells were grown in 96 well clear bottom white plates in Hams F12 medium containing 10% fetal bovine serum (FBS). Prior to the addition of compounds or standard agonist, cells were serum starved overnight. Increasing concentrations of test compounds were added along with EC20 of acetylcholine in OptiMEM medium to the cells. The incubation was continued at 37° C. in CO2 incubator for 4 hours. Medium was removed and cells were washed with phosphate buffered saline. The cells were lysed and luciferase activity was measured in a Luminometer. Luminescence units were plotted against the compound concentrations using Graphpad software. EC50 values of the compounds were defined as the concentration required in stimulating the luciferase activity by 50% in presence of EC20 of acetylcholine.

[2] = Rodent brain penetration study; format: in vivo; conditions: rat, oral, 3 mg/kg, p.o., male Wistar rats, read-out: Single dose Rat Brain Penetration (Cb/Cp)
Method: Rodent Brain Penetration Study
Male Wistar rats (260±40 grams) were used as experimental animals. Three animals were housed in each cage. Animals were given water and food ad libitum throughout the experiment and maintained on a 12 hours light/dark cycle.
Brain penetration was determined in discrete manner in rats. One day prior to dosing day, male Wistar rats were acclimatized and randomly grouped according to their weight. At each time point (0.50, 1 and 2 hours) n=3 animals were used.
The test compounds were suitably preformulated and administered orally at (free base equivalent) 3 mg/kg. Blood samples were removed via cardiac puncture by using isoflurane anesthesia. The animals were sacrificed to collect brain tissue. Plasma was separated and brain samples were homogenized and stored frozen at −20° C. until analysis. The concentrations of the test compounds in plasma and brain were determined using LC-MS/MS method.
The test compounds were quantified in plasma and brain homogenate by qualified LC-MS/MS method using suitable extraction technique. The test compounds were quantified in the calibration range of 1-500 ng/mL in plasma and brain homogenate. Study samples were analyzed using calibration samples in the batch and quality control samples spread across the batch. Extent of brain-plasma ratio was calculated (Cb/Cp).

[3] = Rodent pharmacokinetic study; format: in vivo, rat; conditions: male Wistar rats; for clearance / half-life / Vd / Cmax / Tmax / bioavailability: rat, plasma; for Vd: read-out: Vz; for bioavailability: 3 mg/kg oral vs 1 mg/kg i.v.
Method: Rodent Pharmacokinetic Study
Male Wistar rats (260±50 grams) were used as experimental animals. Animals were housed individually in polypropylene cage. Two days prior to study, male Wistar rats were anesthetized with isoflurane for surgical placement of jugular vein catheter. Rats were randomly divided for oral (3 mg/kg) and intravenous (1 mg/kg) dosing (n=3/group) and fasted overnight before oral dosing (p.o.). However, rats allocated to intravenous (i.v.) dosing food and water was provided ad libitum.
At pre-determined point, blood was collected through jugular vein and replenished with an equivalent volume of normal saline. Collected blood was transferred into a labeled eppendorf tube containing 10 μL of heparin as an anticoagulant. Typically blood samples were collected at following time points: 0.08, 0.25, 0.5, 1, 2, 4, 6, 8, and 24 hours post dose. Blood was centrifuged at 4000 rpm for 10 minutes. Plasma was separated and stored frozen at −80° C. until analysis. The concentrations of the test compounds were quantified in plasma by qualified LC-MS/MS method using suitable extraction technique. The test compounds were quantified in the calibration range around 1-1000 ng/mL in plasma. Study samples were analyzed using calibration samples in the batch and quality control samples spread across the batch.
Pharmacokinetic parameters Cmax, Tmax, AUCt, T1/2, clearance, Vz and bioavailability were calculated by non-compartmental model using standard non-compartmental model by using Phoenix WinNonlin 6.0.2 or 6.0.3 version Software package.

[4] = test system: Male Wistar rats; assay: Object recognition task model (time induced memory deficit); format: in vivo, rat; conditions: p.o.; for Exploration time mean ± S.E.M, Familiar object / Exploration time mean ± S.E.M, Novel object: choice trial 24 hours after T1
Method: Object Recognition Task Model
The cognition enhancing properties of compounds of this invention were estimated by using this model.
Male Wistar rats (8-10 weeks old) were used as experimental animals. Four animals were housed in each cage. Animals were kept on 20% food deprivation from a day prior to experimentation. Water was provided ad libitum throughout the experiment. Animals were maintained on a 12 hours light/dark cycle in temperature and humidity controlled room. The experiment was carried out in an open field made up of acrylic. Rats were habituated to individual arenas (open field) for 1 hour in the absence of any objects on day 1.
One group of 12 rats received vehicle and another set of animals received test compounds or test compounds and Donepezil, before the familiar (T1) and choice (T2) trials. During the familiarization phase, (T1), the rats were placed individually in the arena for 3 minutes, in which two identical objects (a1 and a2) were positioned 10 cm from the wall. 24 hours after T1, trial for long-term memory test was performed. The same rats were placed in the same arena as they were placed in T1 trial. During the choice phase (T2) rats were allowed to explore the arena for 3 minutes in presence of a copy of familiar object (a3) and one novel object (b). During the T1 and T2 trial, explorations of each object (defined as sniffing, licking, chewing or having moving vibrissae whilst directing the nose towards the object at a distance of less than 1 cm) were recorded using stopwatch.
T1 is the total time spent exploring the familiar objects (a1+a2).
T2 is the total time spent exploring the familiar object and novel object (a3+b). Discriminative index=Time spent with novel object/(time spent with novel and familiar object).
The object recognition test was performed as described in Behavioural Brain Research, 1988, 31, 47-59.

recombinant human Muscarinic M1 receptor, sequence (P11229 whole entry): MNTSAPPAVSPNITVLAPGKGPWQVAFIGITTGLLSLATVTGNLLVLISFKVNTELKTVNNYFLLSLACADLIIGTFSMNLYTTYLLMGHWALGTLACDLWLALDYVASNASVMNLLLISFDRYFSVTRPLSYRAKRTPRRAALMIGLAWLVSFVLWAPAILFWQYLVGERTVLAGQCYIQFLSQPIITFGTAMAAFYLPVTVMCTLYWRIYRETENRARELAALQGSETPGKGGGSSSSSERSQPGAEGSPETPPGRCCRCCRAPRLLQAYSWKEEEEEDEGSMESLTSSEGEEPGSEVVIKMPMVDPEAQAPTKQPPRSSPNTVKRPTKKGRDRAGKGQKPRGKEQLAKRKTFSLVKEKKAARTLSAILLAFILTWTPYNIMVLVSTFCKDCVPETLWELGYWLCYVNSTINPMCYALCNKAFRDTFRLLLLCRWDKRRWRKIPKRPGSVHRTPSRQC

Row | Compound | EC50 [1] [nM] | Kp [2] | AUC0-t ([3]; 1 mg/kg i.v. (bolus)) [ng·h/mL] | AUC0-t ([3]; 3 mg/kg oral (gavage)) [ng·h/mL] | clearance ([3]; iv, 1 mg/kg i.v. (bolus)) [mL/min/kg] | half-life ([3]; iv, 1 mg/kg i.v. (bolus)) [h] | Vd ([3]; iv, 1 mg/kg i.v. (bolus)) [L/kg] | Cmax ([3]; 3 mg/kg oral (gavage)) [ng/mL] | Tmax ([3]; 3 mg/kg oral (gavage)) [h] | half-life ([3]; 3 mg/kg oral (gavage)) [h] | bioavailability [3] [%] | Inference ([4]; 3 mg/kg) | Exploration time mean ± S.E.M, Familiar object ([4]; 3 mg/kg) [s] | Exploration time mean ± S.E.M, Novel object ([4]; 3 mg/kg) [s] | Inference ([4]; 1 mg/kg) | Exploration time mean ± S.E.M, Familiar object ([4]; 1 mg/kg) [s] | Exploration time mean ± S.E.M, Novel object ([4]; 1 mg/kg) [s] | Inference ([4]; 10 mg/kg) | Exploration time mean ± S.E.M, Familiar object ([4]; 10 mg/kg) [s] | Exploration time mean ± S.E.M, Novel object ([4]; 10 mg/kg) [s]
1 | COc1ccc(CN2C=C(C(=O)N[C@H]3CCCC[C@@H]3O)Oc3ccccc32)cc1 [Example 5, N-(cis-1S, 2S-2-Hydroxycyclohexyl)-4-(4-methoxybenzyl)-4H-benzo[1,4]oxazine-2-carboxamide] | 135 | 0.9 ± 0.15 | 1150 ± 62 | 3980 ± 533 | 14 ± 1 | 4.5 ± 0.2 | 5.6 ± 0.5 | 430 ± 35 | 2.83 ± 2.02 | 3.9 ± 0.1 | 115 ± 15 | – | – | – | – | – | – | – | – | –
2 | O=C(N[C@H]1CCCC[C@@H]1O)C1=CN(Cc2cccc(F)c2)c2ccccc2O1 [Example 7, N-(cis-1S, 2S-2-Hydroxycyclohexyl)-4-(3-fluorobenzyl)-4H-benzo[1,4]oxazine-2-carboxamide] | 891 | 1.04 ± 0.16 | 553 ± 42 | 652 ± 227 | 29 ± 2 | 1.7 ± 0.3 | 4.3 ± 0.9 | 313 ± 111 | 0.5 | 1.8 ± 0.3 | 39 ± 14 | Active | 9.23 ± 1.53 | 13.92 ± 1.99 | – | – | – | – | – | –
3 | O=C(N[C@H]1CCCC[C@@H]1O)C1=CN(Cc2ccncc2)c2ccccc2O1 [Example 23, N-(cis-1S,2S-2-Hydroxycyclohexyl)-4-(pyridin-4-ylmethyl)-4H-benzo[1,4]oxazine-2-carboxamide] | 323 | 0.32 ± 0.02 | 419 ± 182 | 437 ± 138 | 44 ± 21 | 1.5 ± 0.9 | 6.8 ± 7.1 | 428 ± 78 | 0.42 ± 0.14 | 1.2 ± 0.6 | 35 ± 11 | – | – | – | Active | 13.15 ± 1.55 | 17.99 ± 2.53 | – | – | –
4 | O=C(NC1CCOCC1O)C1=CN(Cc2cccc(F)c2F)c2ccccc2O1 (stereo not shown) [Example 20, N-(3-Hydroxytetrahydrpyran-4-yl)-4-(2,3-difluorobenzyl)-4H-benzo[1,4]oxazine-2-carboxamide] | 1250 | 0.82 ± 0.25 | – | – | – | – | – | – | – | – | – | – | – | – | – | – | – | Active | 12.17 ± 1.84 | 19.94 ± 3.02
5 | O=C(N[C@H]1CCCC[C@@H]1O)C1=CN(Cc2ccccc2)c2ccccc2O1 [Example 4, N-(cis-1S,2S-2-Hydroxycyclohexyl)-4-benzyl-4H-benzo[1,4]oxazine-2-carboxamide] | 1430 | 1.43 ± 0.01 | 415 ± 17 | 607 ± 62 | 40 ± 2 | 1.4 ± 0.1 | 4.7 ± 0.1 | 245 ± 27 | 0.58 ± 0.38 | 1.5 ± 0.3 | 49 ± 5 | – | – | – | – | – | – | Active | 7.43 ± 0.67 | 11.21 ± 1.26
6 | O=C(N[C@H]1CCCC[C@@H]1O)C1=CN(Cc2cccc(F)c2)c2cccc(F)c2O1 [Example 51, N-(cis-1S,2S-2-Hydroxycyclohexyl)-4-{3-fluorobenzyl}-8-fluoro-4H-benzo[1,4]oxazine-2-carboxamide] | 420 | 1.93 ± 0.37 | 533 ± 62 | 371 ± 149 | 31 ± 4 | 3.6 ± 3 | 9.8 ± 8 | 132 ± 32 | 1 | 2.3 ± 0.5 | 23 ± 9 | – | – | – | – | – | – | – | – | –
7 | O=C(N[C@H]1CCCC[C@@H]1O)C1=CN(Cc2cccc(F)c2F)c2ncccc2O1 [Example 33, N-(cis-1S,2S-2-Hydroxycyclohexyl)-4-(2,3-difluorobenzyl)-4H-pyrido[3,2-b][1,4]oxazine-2-carboxamide] | 1180 | 1.96 ± 0.91 | 452 ± 135 | 719 ± 269 | 39 ± 10 | 1.2 ± 0.6 | 3.5 ± 1 | 159 ± 26 | 1.5 ± 0.9 | 3.2 ± 2 | 53 ± 20 | – | – | – | – | – | – | – | – | –
8 | O=C(N[C@H]1CCCC[C@@H]1O)C1=CN(Cc2cccc(C(F)(F)F)c2)c2ccccc2O1 [Example 17, N-(cis-1S, 2S-2-Hydroxycyclohexyl)-4-(3-trifluoromethylbenzyl)-4H-benzo[1,4]oxazine-2-carboxamide] | 149 | 1.92 ± 0.24 | 600 ± 74 | 467 ± 169 | 27 ± 3 | 9.2 ± 2.2 | 22 ± 8 | 91 ± 38 | 4 | 2.6 ± 0.2 | 26 ± 9 | – | – | – | – | – | – | – | – | –
